Measurements reported in patent US20250129086A1, “COMPOUND FOR DEGRADING EGFR PROTEIN AND USE THEREOF” (TYK MEDICINES, INC., priority 2021, published 2025).

Assays:
[1] = test system: HCC827 (exon 19 deletion mutation); experiment: Cell antiproliferative assay (CTG, 72 h), HCC827; assay type: cell-based, human
How it was run: (§1)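 Viability by CTG luminescence after 72 h compound exposure, normalised between blank medium and 0.1% DMSO controls, with IC50 from fitted curves. Dosing in triplicate, top 10,000 nM, 4-fold dilutions, applied about 24 h after plating 1500-2500 cells per well.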

[2] = molecular target: T1, EGFR (Homo sapiens, UniProt P00533, DEL746-750); experiment: EGFR PROTAC In Cell Western assay in HCC827; assay type: cell-based; settings: HCC827, EGFR degradation, 16 hours of incubation
T1 construct: host or cells: HCC827
T1 sequence (P00533 with tags, fused parts or gaps DEL746-750): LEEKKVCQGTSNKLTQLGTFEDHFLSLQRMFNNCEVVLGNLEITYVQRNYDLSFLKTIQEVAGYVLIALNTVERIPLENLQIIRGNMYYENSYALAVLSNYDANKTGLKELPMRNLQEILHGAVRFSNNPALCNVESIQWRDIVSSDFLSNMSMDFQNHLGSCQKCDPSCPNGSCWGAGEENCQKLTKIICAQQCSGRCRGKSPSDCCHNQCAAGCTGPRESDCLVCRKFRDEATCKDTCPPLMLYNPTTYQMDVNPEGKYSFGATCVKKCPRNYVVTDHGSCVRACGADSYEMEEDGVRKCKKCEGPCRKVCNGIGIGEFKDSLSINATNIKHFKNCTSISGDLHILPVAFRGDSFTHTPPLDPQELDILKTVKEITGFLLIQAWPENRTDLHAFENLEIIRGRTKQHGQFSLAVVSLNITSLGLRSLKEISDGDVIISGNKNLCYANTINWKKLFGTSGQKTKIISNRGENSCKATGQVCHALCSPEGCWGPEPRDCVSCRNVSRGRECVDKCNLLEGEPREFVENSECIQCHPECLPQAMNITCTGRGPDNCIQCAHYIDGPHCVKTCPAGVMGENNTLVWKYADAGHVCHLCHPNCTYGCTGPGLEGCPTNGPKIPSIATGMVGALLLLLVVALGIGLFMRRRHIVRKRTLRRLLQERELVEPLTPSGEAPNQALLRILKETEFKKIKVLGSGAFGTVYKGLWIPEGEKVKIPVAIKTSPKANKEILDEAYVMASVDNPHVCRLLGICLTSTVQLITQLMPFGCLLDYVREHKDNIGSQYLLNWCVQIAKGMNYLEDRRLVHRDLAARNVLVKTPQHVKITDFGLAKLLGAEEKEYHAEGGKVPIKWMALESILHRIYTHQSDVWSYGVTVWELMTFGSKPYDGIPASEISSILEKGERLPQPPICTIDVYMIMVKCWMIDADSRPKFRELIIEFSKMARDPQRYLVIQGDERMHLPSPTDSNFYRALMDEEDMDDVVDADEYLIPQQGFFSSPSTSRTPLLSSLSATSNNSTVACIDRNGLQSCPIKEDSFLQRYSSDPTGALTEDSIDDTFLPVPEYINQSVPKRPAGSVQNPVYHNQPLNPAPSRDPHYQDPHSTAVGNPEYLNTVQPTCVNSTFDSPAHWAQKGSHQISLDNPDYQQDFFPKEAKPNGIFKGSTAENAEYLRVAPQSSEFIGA
Excerpt: Test Example 2 EGFR PROTAC in Cell Western Assay
HCC827 cell culture medium was purchased from Corning. Cell line HCC827 was purchased from BeNa Culture Collection; EGF Receptor (D38B1) XP Rabbit mAb antibody and β-Actin (8H10D10) Mouse mAb antibody were from CST. IRDye 800CW, IRDye 680RD, and Intercept blocking solution (PBS) were purchased from Licor. Triton-100 was purchased from sigma, and 96-well black cell culture imaging microtiter plates were purchased from Agilent.
1) HCC827 cells were cell counted and cells were inoculated into 96-well black cell culture imaging microtiter plates at a density of 40,000 cells per well, with 100 μl per well. The plate was incubated overnight in a CO2 incubator.
2) Day 1: A gradient dilution of the compound to be tested was added to the cells of the culture plate (with a starting concentration of […], 9 concentrations, a dilution ratio of 1:3, 2 duplicate wells), with a final concentration of DMSO being 0.5%, and a blank control of DMSO without compound. The plate was placed in the cell culture incubator for a final 16 hours of incubation.
3) The culture medium was removed from the 96 wells with a pipette and the residual medium was washed with […] of PBS per well on a shaker for 5 min. After the removal of PBS, cells were quickly fixed by adding 150 μl of fresh fixation buffer (3.7% paraformaldehyde) and incubated for 20 min at room temperature.
4) The fixation buffer was removed and […] of Triton elution buffer (0.3% Triton-100) was added to wash for four times on a shaker for 5 minutes each time.
5)[…] LI-COR Odyssey blocking solution was added and the cells were incubated for 1.5 hours at room temperature with slow shaking on a shaker.
6) To block the samples, a primary antibody against EGFR and Actin were prepared using Antibody Dilution Buffer at a ratio of 1:300. The blocking solution was poured out and the diluted primary antibody was added (at a total volume of 50 μl/per well). The cell plate was covered and incubated at 4° C. overnight.
7) The cell plate was washed four times with PBS+Triton X-100 for 5 minutes each time.
8) Fluorescently labeled secondary antibodies IRDye® 680RD and IRDye® 800CW were diluted with Antibody Dilution Buffer (with a ratio of 1:600, at a total volume of 50 μl/well) and then incubated for one hour at room temperature, protected from light.
9) The cell plate was washed four times with PBS+Triton X-100 for 5 minutes each time.
After pipetting the PBS thoroughly, the plate was inverted and imaged on a Burroughs imager. A multiple exposure program was selected, IRDye 680RD Blot was chosen for the first channel, and IRDye 800CW Blot was chosen for the second channel. […] The blank group was the DMSO group, EGFR/Actin was calculated as the EGFR value of the corresponding sample wells, and the degradation rate=100-100*EGFR signal/DMSO signal. The DC50 and Dmax of the degraded EGFR proteins were calculated by fitting curves using the Prism software, 3-parameter method.

[3] = test system: H1975 (EGFR L858R/T790M double mutation); experiment: Cell antiproliferative assay (CTG, 72 h), H1975; assay type: cell-based, human
How it was run: as §1

[4] = test system: PC-9 (EGFR exon 19 deletion); experiment: Cell antiproliferative assay (CTG, 72 h), PC-9; assay type: cell-based, human
How it was run: as §1

[5] = Homo sapiens, HCC827, 72 h, Table 2, HCC827 cells
[6] = Homo sapiens, NCI-H1975, 72 h, Table 2, H1975 cells
[7] = Homo sapiens, PC-9, 72 h, Table 2, PC-9 cells

Row | IC50 [1, 5] [nM] | Dmax ([2]; HCC827, Table 4) [%] | DC50 ([2]; Table 4) [nM] | IC50 [3, 6] [nM] | IC50 [4, 7] [nM] | Compound | also measured
1 | 100 to 1000 | 50 to 70 | 10 to 100 | 10 to 100 | 100 to 1000 | COc1cc(N2CCN(C(=O)CN3CCC(c4ccc(NC5CCC(=O)NC5=O)cc4)CC3)CC2C)ccc1Nc1ncc(Cl)c(Nc2ccccc2C(C)=O)n1 (stereo not drawn) [Compound T-60] | 
2 | ≥ 1000 | < 50 | 100 to 1000 | 100 to 1000 | ≥ 1000 | COc1cc(N2CCC(N3CCN(C(=O)CCCCN4CCN(c5ccc6c(c5)C(=O)N(C5CCC(=O)NC5=O)C6=O)CC4)CC3)CC2)ccc1Nc1ncc(Cl)c(Nc2ccccc2C(C)=O)n1 (stereo not drawn) [Compound T-221] | 
3 | 100 to 1000 | < 50 | ≥ 1000 | 100 to 1000 | 100 to 1000 | COc1cc(N2CC(NC(=O)CN3CCC(c4ccc(NC5CCC(=O)NC5=O)cc4)CC3)C2)ccc1Nc1ncc(Cl)c(Nc2ccccc2C(C)=O)n1 (stereo not drawn) [Compound T-169] | 
4 | 10 to 100 | 70 to 100 | 10 to 100 | ≤ 10 | 10 to 100 | CNC(=O)c1ccccc1Nc1nc(Nc2cc(C)c(N3CCN(C(=O)CN4CCC(c5ccc(NC6CCC(=O)NC6=O)cc5)CC4)CC3)cc2OC)ncc1Cl (stereo not drawn) [Compound T-254] | 
5 | 10 to 100 | 50 to 70 | 10 to 100 | 10 to 100 | 100 to 1000 | COc1nc(N2CCN(C(=O)CN3CCC(c4ccc(NC5CCC(=O)NC5=O)cc4)CC3)CC2)ccc1Nc1ncc(Cl)c(Nc2ccccc2P(C)(C)=O)n1 (stereo not drawn) [Compound T-203] | 
6 | 10 to 100 | 50 to 70 | 10 to 100 | 100 to 1000 | 100 to 1000 | COc1cc(N2CCC(N3CCN(C(=O)CCCCN4CCN(c5ccc6c(c5)C(=O)N(C5CCC(=O)NC5=O)C6=O)CC4)CC3)CC2)ccc1Nc1ncc(Cl)c(Nc2ccccc2N(C)S(C)(=O)=O)n1 (stereo not drawn) [Comparative Compound 3, reference compound] | IC50 ([1]; Homo sapiens, HCC827, 72 h, Table 3, HCC827 cells): 72.5 nM; Dmax ([2]; HCC827, Table 5): 56.4%; DC50 ([2]; Table 5): 15.2 nM; IC50 ([3]; Homo sapiens, NCI-H1975, 72 h, Table 3, H1975 cells): 386 nM; IC50 ([4]; Homo sapiens, PC-9, 72 h, Table 3, PC-9 cells): 682 nM
7 | 10 to 100 | < 50 | 10 to 100 | 100 to 1000 | ≥ 1000 | COc1cc(N2CC[C@H](N(C)C(=O)CN3CCC(c4ccc(NC5CCC(=O)NC5=O)cc4)CC3)C2)ccc1Nc1ncc(Cl)c(Nc2ccccc2C(C)=O)n1 (stereo partly drawn) [Compound T-172] | 
8 |  | < 50 | 100 to 1000 | 10 to 100 |  | COc1cc(N2CCC(N(C)C(=O)C3CCN(CC4CCN(c5ccc6c(c5)C(=O)N(C5CCC(=O)NC5=O)C6=O)CC4)CC3)CC2)ccc1Nc1ncc(Cl)c(Nc2ccccc2C(C)=O)n1 (stereo not drawn) [Compound T-228] | 
9 |  | < 50 | 100 to 1000 |  |  | COc1cc(C(=O)N2CCC(c3ccc(NC4CCC(=O)NC4=O)cc3)CC2)ccc1Nc1ncc(Cl)c(Nc2ccccc2C(C)=O)n1 (stereo not drawn) [Compound T-130] | 
10 | 10 to 100 |  |  | 10 to 100 | 100 to 1000 | COc1cc(N2CCN(C(=O)CN3CCC(c4ccc(NC5CCC(=O)NC5=O)cc4)CC3)CC2)ccc1Nc1ncc(Cl)c(Nc2ccccc2NS(C)(=O)=O)n1 (stereo not drawn) [Compound T-218] | 
11 | 100 to 1000 |  |  | 10 to 100 | 100 to 1000 | COc1cc(N2CCN(C(=O)CN3CCC(c4ccc(NC5CCC(=O)NC5=O)cc4)CC3)CC2)ccc1Nc1ncc(Cl)c(Nc2ccccc2)n1 (stereo not drawn) [Compound T-01] | 
12 |  |  |  |  |  | COc1cc(C2CCN(C(=O)CN3CCC(c4ccc(NC5CCC(=O)NC5=O)cc4)CC3)CC2)ccc1Nc1ncc(Cl)c(Nc2ccccc2C(C)=O)n1 (stereo not drawn) [Compound T-69] | IC50 ([1]; Table 2, HCC827 cells): 100 to 1000 nM; IC50 ([3]; Table 2, H1975 cells): 100 to 1000 nM; IC50 ([4]; Table 2, PC-9 cells): 100 to 1000 nM
